How the values were obtained:
[1] = test system: crabgrass (Digitaria sanguinalis.); test: Foliar treatment pot test on crabgrass, visual growth inhibition rate (Test Example 1); type: in vivo; conditions: foliar treatment at 3.8 to 4.0-leaf stage, 28th day after treatment, read-out: Growth inhibition rate (%) of crabgrass, Measured value
Source text: When the herbicidal activity in a case where two active ingredients are combined, is larger than the simple sum of the respective herbicidal activities of the two active ingredients (the expected activity), it is called a synergistic effect. The activity expected by the combination of two active ingredients can be calculated as follows (Colby S. […] E=α+β-(α×β÷100) where α: growth inhibition rate when treated with x (g/ha) of herbicide X, β: growth inhibition rate when treated with y (g/ha) of herbicide Y, E: growth inhibition rate expected when treated with x (g/ha) of herbicide X and y (g/ha) of herbicide Y. Upland field soil was put into a 1/1,000,000 ha pot, and seeds of crabgrass (Digitaria sanguinalis.) were sown. When the crabgrass reached 3.8 to 4.0-leaf stage, predetermined amounts of water dispersible granules comprising flazasulfuron as an active ingredient (trade name: […] manufactured by Ishihara Sangyo Kaisha, Ltd.) were diluted with water (corresponding to 300 L/ha) containing 0.1 vol % of an agricultural adjuvant (trade name: […] manufactured by NIHON NOHYAKU CO., LTD.) and applied for foliar treatment by a small sprayer. On the 28th day after treatment, the state of growth of the crabgrass was visually observed to determine the growth inhibition rate in accordance with the following evaluation standard. The growth inhibition rate (%) (measured value) and the growth inhibition rate (%) (calculated value) calculated by the Colby's formula are shown in Table 1. Growth inhibition rate (%)=0 (equivalent to the non-treated area) to 100 (complete kill)

[2] = test system: bermuda grass (Cynodon dactylon (L.) Pers.); test: Foliar treatment pot test on bermuda grass, visual growth inhibition rate (Test Example 2); type: in vivo; conditions: in Cynodon dactylon, foliar treatment at 5.0 to 7.0-leaf stage, 21st day after treatment, read-out: Growth inhibition rate (%) of bermuda grass, Measured value
Source text: When the herbicidal activity in a case where two active ingredients are combined, is larger than the simple sum of the respective herbicidal activities of the two active ingredients (the expected activity), it is called a synergistic effect. The activity expected by the combination of two active ingredients can be calculated as follows (Colby S. R., “Weed”, vol. 15, p. 20-22, 1967). E=α+β-(α×β÷100) where α: growth inhibition rate when treated with x (g/ha) of herbicide X, β: growth inhibition rate when treated with y (g/ha) of herbicide Y, E: growth inhibition rate expected when treated with x (g/ha) of herbicide X and y (g/ha) of herbicide Y. Growth inhibition rate (%)=0 (equivalent to the non-treated area) to 100 (complete kill) Upland field soil was put into a 1/1,000,000 ha pot, and seeds of bermuda grass (Cynodon dactylon (L.) Pers.) were sown. When the bermuda grass reached 5.0 to 7.0-leaf stage, predetermined amounts of water dispersible granules comprising flazasulfuron as an active ingredient (trade name: […]) were diluted with water (corresponding to 1,000 L/ha) containing 0.05 vol % of an agricultural adjuvant (trade name: […]) and applied for foliar treatment by a small sprayer. On the 21st day after treatment, the state of growth of the bermuda grass was visually observed to determine the growth inhibition rate. The growth inhibition rate (%) (measured value) and the growth inhibition rate (%) calculated in the same manner as in Test Example 1 are shown in Table 2.

Row | Compound | inhibition at 12.5 g/ha ([1]; dose 12.5 g/ha) [%] | inhibition at 10 g/ha [2] [%] | inhibition at 200 g/ha ([2]; dose 200 g/ha) [%] | inhibition at 15 g/ha ([1]; dose 15 g/ha) [%] | inhibition at 40 g/ha ([1]; dose 40 g/ha) [%] | inhibition at 150 g/ha ([2]; dose 150 g/ha) [%]
1 | COc1cc(OC)nc(NC(=O)NS(=O)(=O)c2ncccc2C(F)(F)F)n1 [Flazasulfuron, 1-(4,6-dimethoxypyrimidin-2-yl)-3-(3-trifluoromethyl-2-pyridylsulfonyl)urea] | 87 | 0 | 45 |  |  | 
2 | COc1cc(OC)nc(NC(=O)NS(=O)(=O)c2ncccc2C(=O)N(C)C)n1 [Nicosulfuron, 2-(4,6-dimethoxypyrimidin-2-ylcarbamoylsulfamoyl)-N,N-dimethylnicotinamide] |  | 8 |  | 7 | 22 | 90

Reference: US8673815B2, “Herbicidal composition” (Ishihara Sangyo Kaisha, Ltd., priority 2010, dated 2014)
